Data as given in EP0129667A1, “Compounds and pharmaceutical compositions for treatment of hypoovarianism” (Takeda Chemical Industries, Ltd., priority 1983, dated 1985).

Experiments:
[1] = tested on: young oophorectomized rats; assay: E activity-potentiating effect in young oophorectomized rats (uterine wet weight); format: in vivo, Spraque-Dawley rats; conditions: 3 days; for increase of uterine weight by the compound alone: without estrone; for Uterine wet weight (mg ± S.D.): autopsy on 4th day
Method: Spraque-Dawley rats, 33 days of age and 11 days after oophorectomy for elimination of endogenous E activity, were assigned to groups of 5 to 7 individuals and treated subcutaneously with solutions of esterone in sesame oil or orally with suspensions of Compound A in 1% hydroxypropylcellulose solution, either independently or in combination, for 3 days. On the 4th day, each animal was autopsied and its uterine wet weight was recorded. […] Spraque-Dawley rats, 33 days of age and 11 days after oophorectomy for elimination of endogenous E activity, were assigned to groups of 5 to 7 individuals and treated subcutaneously with solutions of esterone in sesame oil or orally with suspensions of Compound B in 1% hydroxypropylcellulose solution, either independently or in combination, for 3 days. On the 4th day, each animal was autopsied and its uterine wet weight was recorded.

[2] = tested on: Spraque-Dawley rats; assay: Acute toxicity in rats; format: in vivo; conditions: 5-week-old Spraque-Dawley rats, 14 days observation, LD50 could not be calculated
Method: (§1) Five-week-old ICR mice and 5-week-old Spraque-Dawley rats were used in groups of 10 males and 10 females, and suspensions of compound A or B in olive oil were administered orally [2,500, 5,000 and 10,000 mg/kg of each compound] or subcutaneously (1,250, 2,500 and 5,000 mg/kg). The animals were kept under observation for 14 days.

[3] = tested on: ICR mice; assay: Acute toxicity in mice; format: in vivo; conditions: 5-week-old ICR mice, 14 days observation, LD50 could not be calculated
Method: as §1

[4] = oral 2,500, 5,000 and 10,000 mg/kg in olive oil
[5] = subcutaneous 1,250, 2,500 and 5,000 mg/kg in olive oil

O=c1c(-c2ccccc2)coc2cc(O)ccc12 [Compound A, 7-hydroxy-isoflavone]
potentiation of the uterine weight increasing action of estrone ([1]; Compound A at 50 and 100 mg/kg oral with estrone subcutaneous): potentiated the uterine weight increasing action of estrone | increase of uterine weight by the compound alone ([1]; Compound A at 50 and 100 mg/kg oral): did not cause an increase of uterine weight | Uterine wet weight (mg ± S.D.) ([1]; Table 1, Compound A 50 mg/kg daily oral, estrone 0): 35.3 ± 1.7 mg | Uterine wet weight (mg ± S.D.) ([1]; Table 1, Compound A 100 mg/kg daily oral, estrone 0): 35.9 ± 1.0 mg | Uterine wet weight (mg ± S.D.) ([1]; Table 1, estrone 1.0 µg/kg daily subcutaneous + Compound A 50 mg/kg daily oral): 60.8 ± 4.1 mg | Uterine wet weight (mg ± S.D.) ([1]; Table 1, estrone 1.0 µg/kg daily subcutaneous + Compound A 100 mg/kg daily oral): 70.6 ± 2.7 mg

C[C@]12CC[C@@H]3c4ccc(O)cc4CC[C@H]3[C@@H]1CCC2=O [estrone, reference compound]
Uterine wet weight (mg ± S.D.) ([1]; Table 1, estrone 1.0 µg/kg daily subcutaneous alone (Compound A 0)): 52.6 ± 2.3 mg | Uterine wet weight (mg ± S.D.) ([1]; Table 2, estrone 0.5 µg/kg daily subcutaneous alone (Compound B 0)): 36.3 ± 1.9 mg | Uterine wet weight (mg ± S.D.) ([1]; Table 2, estrone 1.0 µg/kg daily subcutaneous alone (Compound B 0)): 51.9 ± 4.2 mg

CC(C)Oc1ccc2c(=O)c(-c3ccccc3)coc2c1 [Compound B, 7-isopropyloxy-isoflavone]
potentiation of the uterine weight increasing action of estrone ([1]; Compound B at 50 and 200 mg/kg oral with estrone subcutaneous): potentiated the uterine weight increasing action of estrone | increase of uterine weight by the compound alone ([1]; Compound B at 50 and 200 mg/kg oral): did not cause an increase of uterine weight | Uterine wet weight (mg ± S.D.) ([1]; Table 2, Compound B 50 mg/kg daily oral, estrone 0): 32.2 ± 1.3 mg | Uterine wet weight (mg ± S.D.) ([1]; Table 2, Compound B 200 mg/kg daily oral, estrone 0): 34.7 ± 1.2 mg | Uterine wet weight (mg ± S.D.) ([1]; Table 2, estrone 0.5 µg/kg daily subcutaneous + Compound B 50 mg/kg daily oral): 39.6 ± 2.4 mg | Uterine wet weight (mg ± S.D.) ([1]; Table 2, estrone 0.5 µg/kg daily subcutaneous + Compound B 200 mg/kg daily oral): 51.3 ± 5.3 mg | Uterine wet weight (mg ± S.D.) ([1]; Table 2, estrone 1.0 µg/kg daily subcutaneous + Compound B 50 mg/kg daily oral): 58.2 ± 2.6 mg | Uterine wet weight (mg ± S.D.) ([1]; Table 2, estrone 1.0 µg/kg daily subcutaneous + Compound B 200 mg/kg daily oral): 71.5 ± 7.4^+ mg | deaths and toxic symptoms (acute toxicity) [2, 4]: None of the groups showed deaths nor toxic symptoms | deaths and toxic symptoms (acute toxicity) [2, 5]: None of the groups showed deaths nor toxic symptoms | deaths and toxic symptoms (acute toxicity) [3, 4]: None of the groups showed deaths nor toxic symptoms | deaths and toxic symptoms (acute toxicity) [3, 5]: None of the groups showed deaths nor toxic symptoms
